Measured values from the NIST ThermoML archive (doi:10.1016/j.fluid.2004.10.025).
± gives the expanded uncertainty stated by the source.

Conditions: Liquid

Row | SMILES | vapor or sublimation pressure (283.15 K) [kPa] | vapor or sublimation pressure (288.15 K) [kPa] | vapor or sublimation pressure (293.15 K) [kPa] | vapor or sublimation pressure (298.15 K) [kPa] | vapor or sublimation pressure (303.15 K) [kPa] | vapor or sublimation pressure (308.15 K) [kPa] | vapor or sublimation pressure (313.15 K) [kPa] | vapor or sublimation pressure (318.15 K) [kPa] | vapor or sublimation pressure (323.15 K) [kPa]
1 | ClC(Cl)(Cl)Cl [tetrachloromethane] | 7.514 ± 0.042 | 9.601 ± 0.047 | 12.14 ± 0.054 | 15.22 ± 0.064 | 18.98 ± 0.076 | 23.36 ± 0.09 | 28.53 ± 0.11 | 34.59 ± 0.13 | 41.68 ± 0.15
2 | ClC(Cl)C(Cl)Cl [1,1,2,2-tetrachloroethane] | 0.263 ± 0.021 | 0.373 ± 0.021 | 0.521 ± 0.022 | 0.711 ± 0.023 | 0.98 ± 0.025 | 1.289 ± 0.028 | 1.701 ± 0.028 | 2.236 ± 0.029 | 2.86 ± 0.03
3 | ClC(Cl)=C(Cl)Cl [tetrachloroethene] | 1.023 ± 0.026 | 1.4 ± 0.027 | 1.861 ± 0.028 | 2.462 ± 0.029 | 3.205 ± 0.031 | 4.117 ± 0.033 | 5.253 ± 0.036 | 6.621 ± 0.039 | 8.286 ± 0.043
